From patent US4746349A, “Method and compositions for suppressing the nitrification of ammonium in plant growth medium” (American Cyanamid Company, priority 1986, dated 1988)
Where “and” joins values, the source holds several entries; their conditions need not be identical. Equal values may be shown once. Where a name gives a salt, the structure may show the parent alone.

Experiments:
Urease = Urease activity of urea amended soil, 38° C., 24 hrs; type: biochemical
Method: Urease activity: Five grams (5 g) oven-dry soil is treated with 5 ml of aqueous urea solution (1000 ug/g soil), with or without the test compound, and incubated in 65 ml screw-capped glass bottles at 38° C. for 24 hrs. Three replicates of each treatment are established. Phenylphosphorodiamide (PPD) is used as a urease inhibitor for comparison with Maduramicin monoammonium salt. Urea remaining is determined after extracting the soil for 60 minutes (with shaking) with 50 ml of 2M KCl containing 0.5 ug/ml of phenylmercuric acetate and filtering the soil suspension. Urea in the extract is determined colorimetrically (Douglas & Bremner, 1970). The percentage inhibition is calculated from (A-B)/(C-B) X 100-% inhibition; where A=the amount of urea found after incubation with the compound, B=the amount of urea found in the non-treated soil, and C=the amount of urea added.

Nitrosomonos = test: Nitrification of ammonium amended field soil incubated at 38° C. (ammonium recovery, nitrate); conditions: soil 38° C.; for Ammonium Recovery, reported as nitrogen / Nitrate, reported as nitrogen: 0.50 ppm, 200 ppm N
Method: (§1) Determination of Nitrification Inhibition of Soil amended with 200 ppm of nitrogen as ammonium sulfate and 0.5 ppm of Nitrapyrin or 0.5 ppm of Maduramicin, monoammonium salt.
(§2) Soil samples prepared as described in Example 1 above are incubated at 38° C. for 20 weeks. Samples are taken at intervals during the 20 week period, extracted with 2M KCl (10:1 v/w), and assayed for ammonium nitrite and nitrate by standard steam distillation methods.

Nitrabacter = test: Nitrite in ammonium amended field soil incubated at 38° C.; conditions: soil 38° C.; for Nitrite, reported as nitrogen: 0.50 ppm, 200 ppm N
Method: as §1, §2

[1] = system: corn (Dekalb T2000, B73×LH 38); test: Field evaluation: yield of corn, silt loam location; type: in vivo
From the text: (§3) Field Evaluation: Field evaluations are based on the N content of corn leaf tissue and grain yield utilizing two soil types. Replicate (4X) field plots are established at two different locations, one having (I) silt loam soil and one (II) with sandy loam soil. These soils had been previously cropped to non-fertilized corn to reduce the level of residual N. Maduramicin monoammonium salt is applied (0.25, 0.125, 0.07 ppm) with NH3 (84 or 168 kg N/ha) through a "downstream" by an injection system into silt loam plots. Nitrapyrin (0.25 ppm=0.56 kg a.i./ha), nitrogen checks, benzyl alcohol (1.16L/ha) (BA) and a O nitrogen check are included for comparison. Individual replicate plot sizes are 3.04M×22.8M (4, 76-cm corn rows×22.8M long) Anhydrous ammonia are injected on 76-cm centers.
Urea, treated or non-treated with Maduramicin monoammonium salt is broadcast on the surface of sandy loam plots. Plots are then planted with corn the day following treatment. Dekalb T2000 is planted 10 May on silt loam plots and Pioneer 3352 is planted 11 May in sandy loam plots.
(§4) Corn ear leaf tissues collected at silking on silt loam plots or 60 days post silking (on silt loam and sandy loam plots) are collected from each plot and assayed for total N (AOAC procedures). Grain yields are determined by harvesting the two center rows×15.2 m of each plot.

corn (Pioneer 3352) = test: Field evaluation: yield of corn, sandy loam plots; type: in vivo; conditions: for AVERAGE YIELD 4-REPLICATES: sandy loam
From the text: as §3
Plots are then planted with corn the day following treatment. Dekalb T2000 is planted 10 May on silt loam plots and Pioneer 3352 is planted 11 May in sandy loam plots.
as §4

Q: With `CO[C@@H]1[C@@H](OC)[C@H](C)[C@@](O)(CC(=O)O)O[C@H]1[C@H](C)[C@H]1O[C@@]2(CC[C@@](C)([C@H]3CC[C@@](C)([C@@H]4O[C@@H]([C@H]5O[C@](C)(O)[C@H](C)C[C@@H]5C)C[C@@H]4O[C@@H]4C[C@H](OC)[C@@H](OC)[C@H](C)O4)O3)O2)C[C@H](O)[C@H]1C` [Maduramicin monoammonium salt, Maduramicin] as the compound, how does the “% INHIBITION (urease)” value (Urease; (A-B)/(C-B) X 100, urea 1000 ug/g soil) read?
A: 16%

Q: And the “AVERAGE amount of urea remaining” value (Urease; average of 3 replicates, urea 1000 ug/g soil)?
A: 483 µg/g

Q: What about the “AMOUNT REMAINING (urea)” value (Urease; single replicates, urea 1000 ug/g soil) of the same compound?
A: 492 µg/g and 477 µg/g

Q: What about the “Activity against Nitrosomonos, in words” value (Nitrosomonos; 0.5 ppm) of the same compound?
A: good activity

Q: What about the “Nitrification inhibition compared with nitrapyrin, in words” value (Nitrosomonos; 0.5 ppm, 20 weeks) of the same compound?
A: slightly better than that obtained with nitrapyrin

Q: And the “Ammonium Recovery, reported as nitrogen” value (Nitrosomonos; week 0)?
A: 193 ppm

Q: What about the “Nitrate, reported as nitrogen” value (Nitrosomonos; week 0) of the same compound?
A: 18 ppm

Q: And the “Ammonium Recovery, reported as nitrogen” value (Nitrosomonos; week 1)?
A: 178 ppm

Q: And the “Nitrate, reported as nitrogen” value (Nitrosomonos; week 1)?
A: 20 ppm

Q: And the “Ammonium Recovery, reported as nitrogen” value (Nitrosomonos; week 2)?
A: 193 ppm

Q: What about the “Nitrate, reported as nitrogen” value (Nitrosomonos; week 2) of the same compound?
A: 17 ppm

Q: And the “Ammonium Recovery, reported as nitrogen” value (Nitrosomonos; week 4)?
A: 199 ppm

Q: And the “Nitrate, reported as nitrogen” value (Nitrosomonos; week 4)?
A: 9 ppm

Q: What about the “Ammonium Recovery, reported as nitrogen” value (Nitrosomonos; week 7) of the same compound?
A: 208 ppm

Q: What about the “Nitrate, reported as nitrogen” value (Nitrosomonos; week 7) of the same compound?
A: 15 ppm

Q: What about the “Ammonium Recovery, reported as nitrogen” value (Nitrosomonos; week 9) of the same compound?
A: 168 ppm

Q: And the “Nitrate, reported as nitrogen” value (Nitrosomonos; week 9)?
A: 52 ppm

Q: What about the “Ammonium Recovery, reported as nitrogen” value (Nitrosomonos; week 12) of the same compound?
A: 154 ppm

Q: And the “Nitrate, reported as nitrogen” value (Nitrosomonos; week 12)?
A: 76 ppm

Q: And the “Ammonium Recovery, reported as nitrogen” value (Nitrosomonos; week 16)?
A: 129 ppm

Q: And the “Nitrate, reported as nitrogen” value (Nitrosomonos; week 16)?
A: 112 ppm

Q: What about the “Ammonium Recovery, reported as nitrogen” value (Nitrosomonos; week 20) of the same compound?
A: 95 ppm

Q: What about the “Nitrate, reported as nitrogen” value (Nitrosomonos; week 20) of the same compound?
A: 111 ppm

Q: And the “Activity against Nitrabacter, in words” value (Nitrabacter; 0.5 ppm)?
A: no activity

Q: And the “Nitrite, reported as nitrogen” value (Nitrabacter; week 0)?
A: 9 ppm

Q: And the “Nitrite, reported as nitrogen” value (Nitrabacter; week 1)?
A: 8 ppm

Q: And the “Nitrite, reported as nitrogen” value (Nitrabacter; week 2)?
A: 4 ppm

Q: What about the “Nitrite, reported as nitrogen” value (Nitrabacter; week 4) of the same compound?
A: 3 ppm

Q: What about the “Nitrite, reported as nitrogen” value (Nitrabacter; week 7) of the same compound?
A: -5 ppm

Q: What about the “Nitrite, reported as nitrogen” value (Nitrabacter; week 9) of the same compound?
A: 9 ppm

Q: And the “Nitrite, reported as nitrogen” value (Nitrabacter; week 12)?
A: 6 ppm

Q: And the “Nitrite, reported as nitrogen” value (Nitrabacter; week 16)?
A: 19 ppm

Q: And the “Nitrite, reported as nitrogen” value (Nitrabacter; week 20)?
A: 37 ppm

Q: What about the “AVERAGE YIELD 4-REPLICATES” value ([1]; N 84 kg/ha, chemical 0.11 kg/ha) of the same compound?
A: 136.6 HECTOLITERS/HECTARE

Q: And the “AVERAGE YIELD 4-REPLICATES” value ([1]; N 84 kg/ha, chemical 0.28 kg/ha)?
A: 129.6 HECTOLITERS/HECTARE

Q: And the “AVERAGE YIELD 4-REPLICATES” value ([1]; N 84 kg/ha, chemical 0.56 kg/ha)?
A: 131.4 HECTOLITERS/HECTARE

Q: And the “AVERAGE YIELD 4-REPLICATES” value ([1]; N 168 kg/ha, chemical 0.11 kg/ha)?
A: 154.0 HECTOLITERS/HECTARE

Q: And the “AVERAGE YIELD 4-REPLICATES” value ([1]; N 168 kg/ha, chemical 0.28 kg/ha)?
A: 146.2 HECTOLITERS/HECTARE

Q: What about the “AVERAGE YIELD 4-REPLICATES” value ([1]; N 168 kg/ha, chemical 0.56 kg/ha) of the same compound?
A: 147.9 HECTOLITERS/HECTARE

Q: And the “Yield at the sandy loam location, in words” value (corn (Pioneer 3352); 0.56 kg a.i./hectare, both rates of NH3 and the lower rate of urea)?
A: significantly higher

Q: What about the “AVERAGE YIELD 4-REPLICATES” value (corn (Pioneer 3352); N 84 kg/ha as NH3, chemical 0.11 kg/ha) of the same compound?
A: 155.7 HECTOLITERS/HECTARE

Q: And the “AVERAGE YIELD 4-REPLICATES” value (corn (Pioneer 3352); N 84 kg/ha as NH3, chemical 0.28 kg/ha)?
A: 159.2 HECTOLITERS/HECTARE

Q: And the “AVERAGE YIELD 4-REPLICATES” value (corn (Pioneer 3352); N 84 kg/ha as NH3, chemical 0.56 kg/ha)?
A: 165.3 HECTOLITERS/HECTARE

Q: And the “AVERAGE YIELD 4-REPLICATES” value (corn (Pioneer 3352); N 168 kg/ha as NH3, chemical 0.11 kg/ha)?
A: 163.6 HECTOLITERS/HECTARE

Q: And the “AVERAGE YIELD 4-REPLICATES” value (corn (Pioneer 3352); N 168 kg/ha as NH3, chemical 0.28 kg/ha)?
A: 174.9 HECTOLITERS/HECTARE

Q: And the “AVERAGE YIELD 4-REPLICATES” value (corn (Pioneer 3352); N 168 kg/ha as NH3, chemical 0.56 kg/ha)?
A: 176.6 HECTOLITERS/HECTARE
